The values that follow come from patent publication US20070042975A1, “Novel indolopyrrolocarbazole derivative with antitumor activity” (priority 2003, published 2007).

Each structure is given as a SMILES string.

Experiment [1] deals with HCT-116 (Human Colorectal Cancer Cells). Briefly: Cell-growth suppressive effect against HCT-116 cells (WST-8 method). The experiment is classed as cell-based. The settings on record: 72 h, 3 days incubation with medicament, read-out: 50% Growth Inhibiting Activity (IC50, μM) HCT-116 Cells. As to the method:
(§1) Method for Judging the Pharmaceutical Effect using Cells
(§2) Fetal calf serum (FCS) was purchased from Molgate and a DMEM medium was purchased from Asahi Techno Glass.
(§3) MKN-45, human stomach cancer cell, was purchased from the Immune Biology Laboratory. HCT 116, human colorectal cancer cell, was purchased from the American Type Culture Collection (ATCC).
(§4) Cells were suspended in a DMEM medium to which 10% of FCS were added, and a cell suspension was dispensed to a 96-well plastic plate to an extent of 1000 cells/50 microliters per well. Incubation was carried out at 37° C. for one night in 5% CO2-95% air. Each medicament was subjected to a gradient dilution using dimethyl sulfoxide or an appropriate solvent and each 50 microliters were dispensed to a microplate to which cells were sowed previously. Incubation was carried out for 3 days more at 37° C. in 5% CO2-95% air.

Experiment [2] has as its system MKN-45 (Human Stomach Cancer Cells). As to the kind of experiment: Cell-growth suppressive effect against MKN-45 cells (WST-8 method). The experiment is classed as cell-based. The settings on record: 72 h, 3 days incubation with medicament, read-out: 50% Growth Inhibiting Activity (IC50, μM) MKN-45 Cells. As to the method:
as §1, §2, §3, §4
On the technique in general: Tetrazolium assays rely on reduction of a dye to a coloured formazan, in cell work by metabolically active cells.

Take `O=C1c2c(c3c4ccc(O)cc4n([C@@H]4O[C@H](CO)[C@@H](O)[C@H](O)[C@H]4O)c3c3[nH]c4cc(O)ccc4c23)C(=O)N1NCc1cc[nH]n1` [Example 14, 6-N-(3-1H-pyrazolylmethyl)amino-12,13-dihydro-2,10-dihydroxy-12-β-D-glucopyranosyl-5H-indolo[2,3-a]pyrrolo[3,4-c]carbazole-5,7(6H)-dione]: the half-inhibitory concentration (IC50) in experiment [1] came out at 0.0012 µM. Same read-out and setting: the result for `O=C1c2c(c3c4ccc(O)cc4n([C@@H]4O[C@H](CO)[C@@H](O)[C@H](O)[C@H]4O)c3c3[nH]c4cc(O)ccc4c23)C(=O)N1CCc1ccncc1` [Example 39, 6-N-(2-(4-pyridyl)ethyl)-12,13-dihydro-2,10-dihydroxy-12-β-D-glucopyranosyl-5H-indolo-[2,3-a]pyrrolo[3,4-c]carbazole-5,7(6H)-dione] reads 0.005 µM; that for `O=C1c2c(c3c4ccc(O)cc4n([C@@H]4O[C@H](CO)[C@@H](O)[C@H](O)[C@H]4O)c3c3[nH]c4cc(O)ccc4c23)C(=O)N1NCc1c[nH]cn1` [Example 15, 6-N-(4-1H-imidazolylmethyl)amino-12,13-dihydro-2,10-dihydroxy-12-β-D-glucopyranosyl-5H-indolo[2,3-a]pyrrolo[3,4-c]carbazole-5,7(6H)-dione], 0.0016 µM; that for `O=C1c2c(c3c4ccc(O)cc4n([C@@H]4O[C@H](CO)[C@@H](O)[C@H](O)[C@H]4O)c3c3[nH]c4cc(O)ccc4c23)C(=O)N1OCc1ccncc1` [Example 18, 6-N-(4-pyridylmethoxy)-12,13-dihydro-2,10-dihydroxy-12-β-D-glucopyranosyl-5H-indolo-[2,3-a]pyrrolo[3,4-c]carbazole-5,7(6H)-dione], 0.0023 µM. Take `O=C1c2c(c3c4ccc(O)cc4n([C@@H]4O[C@H](CO)[C@@H](O)[C@H](O)[C@H]4O)c3c3[nH]c4cc(O)ccc4c23)C(=O)N1NCc1ccnc2ccccc12` [Example 6, 6-N-(4-quinolinylmethylamino)-12,13-dihydro-2,10-dihydroxy-12-β-D-glucopyranosyl-5H-indolo[2,3-a]pyrrolo[3,4-c]carbazole-5,7(6H)-dione]: the IC50 in experiment [2] came out at 0.0014 µM. `O=C1c2c(c3c4ccc(O)cc4n([C@@H]4O[C@H](CO)[C@@H](O)[C@H](O)[C@H]4O)c3c3[nH]c4cc(O)ccc4c23)C(=O)N1NCc1cc([N+](=O)[O-])c[nH]1` [Example 10, 6-N-(4-nitro-2-1H-pyrrolylmethyl)amino-12,13-dihydro-2,10-dihydroxy-12-β-D-glucopyranosyl-5H-indolo[2,3-a]pyrrolo[3,4-c]carbazole-5,7(6H)-dione]: the IC50 in experiment [2] came out at 0.004 µM. On the same count and under the same terms, the result for `O=C1c2c(c3c4ccc(O)cc4n([C@@H]4O[C@H](CO)[C@@H](O)[C@H](O)[C@H]4O)c3c3[nH]c4cc(O)ccc4c23)C(=O)N1NCc1ccc[nH]1` [Example 12, 6-N-(2-1H-pyrrolylmethyl)amino-12,13-dihydro-2,10-dihydroxy-12-β-D-glucopyranosyl-5H-indolo[2,3-a]pyrrolo[3,4-c]carbazole-5,7(6H)-dione] reads 0.002 µM. With `COC(=O)c1cccc(CNN2C(=O)c3c(c4c5ccc(O)cc5n([C@@H]5O[C@H](CO)[C@@H](O)[C@H](O)[C@H]5O)c4c4[nH]c5cc(O)ccc5c34)C2=O)n1` [Example 16, 6-N-(2-methoxycarbonyl-6-pyridylmethyl)amino-12,13-dihydro-2,10-dihydroxy-12-β-D-glucopyranosyl-5H-indolo[2,3-a]pyrrolo[3,4-c]carbazole-5,7(6H)-dione], the concentration for half-maximal inhibition (IC50) in experiment [1] is 0.0049 µM. Take `O=C1c2c(c3c4ccc(O)cc4n([C@@H]4O[C@H](CO)[C@@H](O)[C@H](O)[C@H]4O)c3c3[nH]c4cc(O)ccc4c23)C(=O)N1NCc1cc(CO)sc1CO` [Example 4, 6-N-(2,5-dihydroxymethyl-3-thienylmethyl)amino-12,13-dihydro-2,10-dihydroxy-12-β-D-glucopyranosyl-5H-indolo[2,3-a]pyrrolo[3,4-c]carbazole-5,7(6H)-dione]: the half-inhibitory concentration (IC50) in experiment [2] was 0.0012 µM. Still for that read-out and setting: the result for `O=C1c2c(c3c4ccc(O)cc4n([C@@H]4O[C@H](CO)[C@@H](O)[C@H](O)[C@H]4O)c3c3[nH]c4cc(O)ccc4c23)C(=O)N1NCc1cnccn1` [Example 5, 6-N-pyrazinylmethylamino-12,13-dihydro-2,10-dihydroxy-12-β-D-glucopyranosyl-5H-indolo-[2,3-a]pyrrolo[3,4-c]carbazole-5,7(6H)-dione] reads 0.0028 µM. `O=C1c2c(c3c4ccc(O)cc4n([C@@H]4O[C@H](CO)[C@@H](O)[C@H](O)[C@H]4O)c3c3[nH]c4cc(O)ccc4c23)C(=O)N1OCc1cccc(CO)n1` [Example 19, 6-N-(6-hydroxymethyl-2-pyridylmethoxy)-12,13-dihydro-2,10-dihydroxy-12-β-D-glucopyranosyl-5H-indolo[2,3-a]pyrrolo[3,4-c]carbazole-5,7(6H)-dione]: the half-maximal inhibitory concentration (IC50) in experiment [1] was 0.0037 µM. Take `O=C1c2c(c3c4ccc(O)cc4n([C@@H]4O[C@H](CO)[C@@H](O)[C@H](O)[C@H]4O)c3c3[nH]c4cc(O)ccc4c23)C(=O)N1OCc1ccncc1CO` [Example 30, 6-N-(3-hydroxymethyl-4-pyridylmethoxy)-12,13-dihydro-2,10-dihydroxy-12-β-D-glucopyranosyl-5H-indolo[2,3-a]pyrrolo[3,4-c]carbazole-5,7(6H)-dione]: in experiment [1], the half-maximal inhibitory concentration (IC50) was found to be 0.00076 µM.

The IC50 is the midpoint of a concentration-inhibition curve.
